Measurements published in article PMC8843100, “Development of newly synthesised quinazolinone-based CDK2 inhibitors with potent efficacy against melanoma” (Journal of Enzyme Inhibition and Medicinal Chemistry, 2022).

Assays:
Test in all cases: NCI-60 single dose screen, sulforhodamine B
Format in all cases: cell-based, human
SN12C = conditions: Renal cancer SN12C; single dose 10^−5 M
Method in brief: (§1)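 Tested once, at 10^−5 M in DMSO, the compounds stayed on the cells for 2 days before SRB staining. A time-zero control, set one day after seeding, lets cell kill be told apart from growth inhibition.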

SK-MEL-5 = conditions: Melanoma SK-MEL-5; single dose 10^−5 M
Method in brief: as §1

786-0 = conditions: Renal cancer 786-0; single dose 10^−5 M
Method in brief: as §1

HS 578T = conditions: Breast cancer HS 578T; single dose 10^−5 M
Method in brief: as §1

SK-MEL-28 = conditions: Melanoma SK-MEL-28; single dose 10^−5 M
Method in brief: as §1

HCC-2998 = conditions: Colon cancer HCC-2998; single dose 10^−5 M
Method in brief: as §1

CCRF-CEM = conditions: Leukaemia CCRF-CEM; single dose 10^−5 M
Method in brief: as §1

KM12 = conditions: Colon cancer KM12; single dose 10^−5 M
Method in brief: as §1

MDA-MB-231/ATCC = conditions: Breast cancer MDA-MB-231/ATCC; single dose 10^−5 M
Method in brief: as §1

OVCAR-8 = conditions: Ovarian cancer OVCAR-8; single dose 10^−5 M
Method in brief: as §1

NCI-H460 = conditions: Non-small cell lung cancer NCI-H460; single dose 10^−5 M
Method in brief: as §1

HCT-116 = conditions: Colon cancer HCT-116; single dose 10^−5 M
Method in brief: as §1

RXF 393 = conditions: Renal cancer RXF 393; single dose 10^−5 M
Method in brief: as §1

DU-145 = conditions: Prostate cancer DU-145; single dose 10^−5 M
Method in brief: as §1

MALME-3M = conditions: Melanoma MALME-3M; single dose 10^−5 M
Method in brief: as §1

LOX IMVI = conditions: Melanoma LOX IMVI; single dose 10^−5 M
Method in brief: as §1

SK-MEL-2 = conditions: Melanoma SK-MEL-2; single dose 10^−5 M
Method in brief: as §1

HT29 = conditions: Colon cancer HT29; single dose 10^−5 M
Method in brief: as §1

T-47D = conditions: Breast cancer T-47D; single dose 10^−5 M
Method in brief: as §1

CAKI-1 = conditions: Renal cancer CAKI-1; single dose 10^−5 M
Method in brief: as §1

NCI-H23 = conditions: Non-small cell lung cancer NCI-H23; single dose 10^−5 M
Method in brief: as §1

NCI/ADR-RES = conditions: Ovarian cancer NCI/ADR-RES; single dose 10^−5 M
Method in brief: as §1

UACC-257 = conditions: Melanoma UACC-257; single dose 10^−5 M
Method in brief: as §1

HOP-62 = conditions: Non-small cell lung cancer HOP-62; single dose 10^−5 M
Method in brief: as §1

Compound | GI% at 10^−5 M (SN12C) | GI% at 10^−5 M (SK-MEL-5) | GI% at 10^−5 M (786-0) | GI% at 10^−5 M (HS 578T) | GI% at 10^−5 M (SK-MEL-28) | GI% at 10^−5 M (HCC-2998) | GI% at 10^−5 M (CCRF-CEM) | GI% at 10^−5 M (KM12) | GI% at 10^−5 M (MDA-MB-231/ATCC) | GI% at 10^−5 M (OVCAR-8) | GI% at 10^−5 M (NCI-H460) | GI% at 10^−5 M (HCT-116) | GI% at 10^−5 M (RXF 393) | GI% at 10^−5 M (DU-145) | GI% at 10^−5 M (MALME-3M) | GI% at 10^−5 M (LOX IMVI) | GI% at 10^−5 M (SK-MEL-2) | GI% at 10^−5 M (HT29) | GI% at 10^−5 M (T-47D) | GI% at 10^−5 M (CAKI-1) | further results
COc1cc(C=Nn2c(COc3ccccc3)nc3ccccc3c2=O)ccc1O [Compound 6a, 3-((4-hydroxy-3-methoxybenzylidene)amino)-2-(phenoxymethyl)quinazolin-4(3H)-one] | 10.37% | – (– means GI < 10%) | – (– means GI < 10%) | – (– means GI < 10%) | – (– means GI < 10%) | – (– means GI < 10%) | – (– means GI < 10%) | – (– means GI < 10%) | 10.92% | – (– means GI < 10%) | – (– means GI < 10%) | – (– means GI < 10%) | – (– means GI < 10%) | – (– means GI < 10%) | – (– means GI < 10%) | – (– means GI < 10%) | – (– means GI < 10%) | – (– means GI < 10%) | – (– means GI < 10%) | – (– means GI < 10%) | GI% at 10^−5 M (NCI-H23): – (– means GI < 10%); GI% at 10^−5 M (NCI/ADR-RES): – (– means GI < 10%); GI% at 10^−5 M (UACC-257): – (– means GI < 10%); GI% at 10^−5 M (HOP-62): – (– means GI < 10%)
O=c1c2ccccc2nc(COc2ccccc2)n1N=CC=Cc1ccccc1 [Compound 6b, 2-(phenoxymethyl)-3-((3-phenylallylidene)amino)quinazolin-4(3H)-one] | 12.39% | – (– means GI < 10%) | – (– means GI < 10%) | – (– means GI < 10%) | – (– means GI < 10%) | – (– means GI < 10%) | 15.66% | – (– means GI < 10%) | – (– means GI < 10%) | – (– means GI < 10%) | – (– means GI < 10%) | – (– means GI < 10%) | – (– means GI < 10%) | – (– means GI < 10%) | – (– means GI < 10%) | 27.86% | – (– means GI < 10%) | – (– means GI < 10%) | – (– means GI < 10%) | – (– means GI < 10%) | GI% at 10^−5 M (NCI-H23): – (– means GI < 10%); GI% at 10^−5 M (NCI/ADR-RES): – (– means GI < 10%); GI% at 10^−5 M (UACC-257): – (– means GI < 10%); GI% at 10^−5 M (HOP-62): – (– means GI < 10%)
CN1CCN(CC(=O)Nn2c(COc3ccccc3)nc3ccccc3c2=O)CC1 [Compound 8a, 2–(4-methylpiperazin-1-yl)-N-(4-oxo-2-(phenoxymethyl)quinazolin-3(4H)-yl)acetamide] | – (– means GI < 10%) | 17.11% | – (– means GI < 10%) | 13.94% | – (– means GI < 10%) | 10.06% | 10.65% | 55.03% | 21.65% | – (– means GI < 10%) | – (– means GI < 10%) | 18.15% | – (– means GI < 10%) | – (– means GI < 10%) | 20.47% | 14.73% | 12.84% | 26.89% | 32.2% | 28.85% | GI% at 10^−5 M (NCI-H23): – (– means GI < 10%); GI% at 10^−5 M (NCI/ADR-RES): 28.41%; GI% at 10^−5 M (UACC-257): – (– means GI < 10%); GI% at 10^−5 M (HOP-62): – (– means GI < 10%)
O=C(CN1CCN(c2ccccc2)CC1)Nn1c(COc2ccccc2)nc2ccccc2c1=O [Compound 8b, N-(4-oxo-2-(phenoxymethyl)quinazolin-3(4H)-yl)-2–(4-phenylpiperazin-1-yl)acetamid] | – (– means GI < 10%) | – (– means GI < 10%) | – (– means GI < 10%) | 10.4% | – (– means GI < 10%) | – (– means GI < 10%) | – (– means GI < 10%) | – (– means GI < 10%) | 10.38% | – (– means GI < 10%) | – (– means GI < 10%) | – (– means GI < 10%) | – (– means GI < 10%) | – (– means GI < 10%) | – (– means GI < 10%) | – (– means GI < 10%) | – (– means GI < 10%) | – (– means GI < 10%) | – (– means GI < 10%) | – (– means GI < 10%) | GI% at 10^−5 M (NCI-H23): 10.01%; GI% at 10^−5 M (NCI/ADR-RES): – (– means GI < 10%); GI% at 10^−5 M (UACC-257): – (– means GI < 10%); GI% at 10^−5 M (HOP-62): – (– means GI < 10%)
COc1ccc(N2CCN(CC(=O)Nn3c(COc4ccccc4)nc4ccccc4c3=O)CC2)cc1 [Compound 8c, 2–(4-(4-methoxyphenyl)piperazin-1-yl)-N-(4-oxo-2-(phenoxymethyl)quinazolin-3(4H)-yl)acetamide] | – (– means GI < 10%) | – (– means GI < 10%) | – (– means GI < 10%) | – (– means GI < 10%) | – (– means GI < 10%) | – (– means GI < 10%) | – (– means GI < 10%) | – (– means GI < 10%) | – (– means GI < 10%) | – (– means GI < 10%) | – (– means GI < 10%) | – (– means GI < 10%) | – (– means GI < 10%) | – (– means GI < 10%) | – (– means GI < 10%) | – (– means GI < 10%) | – (– means GI < 10%) | – (– means GI < 10%) | – (– means GI < 10%) | – (– means GI < 10%) | GI% at 10^−5 M (NCI-H23): – (– means GI < 10%); GI% at 10^−5 M (NCI/ADR-RES): – (– means GI < 10%); GI% at 10^−5 M (UACC-257): – (– means GI < 10%); GI% at 10^−5 M (HOP-62): – (– means GI < 10%)
